Reference: patent US7238340B1, “Monoamine, diamide, thiol-containing metal chelating agents” (CIS bio international, priority 1991, dated 2007)

Columns and labels:
[1] = In vivo imaging of deep vein thrombosis with Tc-99m labeled thrombus targeting peptide, canine model; settings: mongrel, dog, thrombus, iv, total radioactivity
Description: (§1) Mongrel dogs (25–35 lb., fasted overnight) were sedated with a combination of ketamine and aceprozamine intramuscularly and then anesthetized with sodium pentabarbital intravenously. In each animal, an 18-gauge angiocath was inserted in the distal half of the right femoral vein and a 5 mm or 8 mm Dacron®-entwined stainless steel embolization coil (Cook Co., Bloomington Ind.) was placed in the femoral vein at approximately mid-femur. The catheter was removed, the wound sutured and the placement of the coil documented by X-ray. The animals were then allowed to recover overnight.
(§2) One day following coil placement, each animal was re-anesthetized, intravenous saline drips placed in each foreleg and a urinary bladder catheter inserted to collect urine. The animal was placed supine under a gamma camera equipped with a low-energy, all purpose collimator and photopeaked for Tc-99m. […] The second line was maintained for blood collection.
(§3) Gamma camera imaging was started simultaneously with injection. Anterior images over the heart were acquired as a dynamic study (10 sec image acquisitions) over the first 10 min, and then as static images at 1, 2, 3 and 4h post-injection. Anterior images over the legs were acquired for 500,000 counts or 20 min (whichever is shorter), at approximately 10–20 min, and at approximately 1, 2, 3 and 4h post-injection. Leg images were collected with a lead shield placed over the bladder.
(§4) Following collection of the final image, each animal was deeply anesthetized with pentobarbital. Two blood samples were collected using a heparinized syringe followed by a euthanizing dose of saturated potassium chloride solution administered by intercardiac or bolus intravenous injection. […] The thrombus, coil and coil Dacron fibres were then dissected free of the vessel. The thrombus, saline-washed vessel samples, coil and coil Dacron® fibres were separated, and each sample was placed in a pre-weighed test tube. The samples were weighed and counted in a gamma well counter in the Tc-99m channel, along with known fractions of the injected doses.
(§5) Fresh thrombus weight, percent injected dose (% ID)/g in the thrombus and blood obtained just prior to euthanasia and thrombus/blood and thrombus/muscle ratios were determined. From the computer-stored images, thrombus/background ratios were determined by analysis of the counts/pixel measured in regions-of-interest (ROI) drawn over the thrombus and adjacent muscle.

thrombus = assay: as above; settings: Tc-99m labeled peptide, i.v., dog, ratio
Description: as §1, §2, §3, §4, §5

**Q.** Which results are given for `CC(=O)NCSC[C@H](NC(=O)CNC(=O)CNC(=O)[C@@H]1CSCC(=O)N[C@H](Cc2ccc(O)cc2)C(=O)N[C@@H](Cc2ccc(C(=N)N)cc2)C(=O)NCC(=O)N[C@@H](CC(=O)O)C(=O)N1)C(=O)NCC(=O)N[C@@H](CSCNC(C)=O)C(=O)NCC(=O)NCC(=O)N[C@@H](CSCC(=O)NCCCC[C@H](NC(=O)CSC[C@H](NC(=O)CNC(=O)CNC(=O)[C@H](CSCNC(C)=O)NC(=O)CNC(=O)[C@H](CSCNC(C)=O)NC(=O)CNC(=O)CNC(=O)[C@@H]1CSCC(=O)N[C@H](Cc2ccc(O)cc2)C(=O)N[C@@H](Cc2ccc(C(=N)N)cc2)C(=O)NCC(=O)N[C@@H](CC(=O)O)C(=O)N1)C(N)=O)C(=O)NCCCC[C@H](N)C(=O)NCC(=O)N[C@@H](CS)C(N)=O)C(N)=O` [Peptide P747, (CH2CO.YD.Amp.GDCGGCAcmGCAcmGGC.amide)2(CH2CO)2K(ε-K)GC.amide]?
**A.** tissue uptake at 4 h [1]: 0.043 %ID/g; Thrombus/Blood (thrombus): 15; Thrombus/Muscle (thrombus): 70
